Where two headings read alike, the source gives them in different places.
Key:
[1] = system: intracellular glutathione; test: Induction of intracellular glutathione; format: cell-based; settings: normal or tumor cells, depending on growth conditions
From the text: It is known that intracellular glutathione plays a major role in detoxification and repair of cellular injury by chemical and physical carcinogens. […] Nontoxic agents that can induce glutathione are highly desirable since these are likely to protect cells from damage by a variety of chemical carcinogens and ionizing radiation.

[2] = system: 4C8a10 cells (revertants of Haras-transformed NIH3T3 fibroblasts); test: Tumor formation of cells pretreated in culture and injected s.c. into athymic nude mice; format: in vivo; settings: cells pretreated with NaPA 1.5 mg/ml; after 3 weeks
From the text: One-two weeks later the cells were transplanted subcutaneously into athymic mice.
The experimental model involved nonmalignant 4C8a10 cells (revertants of Haras-transformed NIH3T3 fibroblasts). […]
Frederick Cancer Research Facility).

[3] = system: premalignant 4C8 and 10T1/2 cells; test: Prevention of 5-AzadC-induced malignant conversion in culture; format: cell-based; settings: NaPA 0.8-1.6 mg/ml, cells exposed to 5-AzadC
From the text: It is known that the treatment of premalignant 4C8 and 10T1/2 cells with carcinogens such as 5-AzadC produces malignant conversion of the respective cells. When 4C8 [Remold: et al., Cancer Research, 51:1-7 (1990)] and 10T1/2 cells were exposed to 5-AzadC, malignant conversion was evident in two days and two weeks, respectively.

C3H 10T1/2 Cells = test: Tumorigenicity of treated cells in athymic mice; settings: NaPA 1.6 mg/ml continuous, time 13 weeks
Protocol: Premalignant cells (3-4 x 10^5) were plated in 75 cm^2 dishes and 5-AzadC 0.1 µM was added to the growth medium at 20 and 48 hrs after plating. The cells were then subcultured in the absence of the nucleoside analog for an additional seven weeks. […] For the tumorigenicity assay, 4-5 week-old female athymic nude mice were inoculated s.c. with 1 x 10^6 cells and observed for tumor growth at the site of injection.

[4] = cited from earlier work
HLA-A mRNA = test: Northern blot analysis in PC3 cells; format: cell-based, human; settings: NaPA treated PC3 cells
collagenase type IV = test: Northern blot analysis in PC3 cells; format: cell-based, human; settings: NaPA treated PC3 cells
[5] = system: Erythroleukemia K562 cells; test: Induction of hemoglobin synthesis (benzidine staining, protein quantitation); settings: for Benzidine Positive Cells: seven days
[6] = system: adipocyte-specific aP2 gene; test: Northern blot analysis of aP2 expression; format: cell-based, mouse; settings: treated confluent 10T1/2 cultures
Protocol: Cytoplasmic RNA (20 µg/lane) was subjected to Northern blot analysis using ^32P-labeled specific DNA probes. Ethidium bromide-stained […] indicates the relative amounts of total RNA in each lane. Figure A. Induction of a P2 expression in 10T1/2 cells. […] Figure B. Kinetics of myc inhibition and HLA-A induction in HL-60. […] Figure C. Dose-dependent and specificity of effect.
In an attempt to explore the possible mechanism of action, Northern blot analysis of HL-60 and 10T1/2 cells was performed according to conventional methods. […] The aP2 cDNA probe was labeled with [^32P]dCTP (NEN) using a commercially available random primed DNA labeling kit. Ethidium bromide-stained 28S rRNA indicates the relative amounts of total RNA in each lane.
Expression of the adipocyte-specific aP2 gene was induced within 24 hrs in treated 10T1/2 confluent cultures reaching maximal mRNA levels by 72 hrs.

[7] = system: primary human skin FS4 fibroblasts; test: Growth of normal cells; format: cell-based; settings: Fibroblast, read-out: concentration needed to cause a significant inhibition of growth
Prostatic PC3 Cells = test: Tumorigenicity of pretreated cells in nude mice; format: in vivo, athymic nude mice; settings: cells pretreated 1 week at 0.8 mg/ml, 8 weeks later
From the text: PC3 cells were pretreated for 1 week in culture and then injected (2 x 10^5 cells/animal) s.c. into 4-5 week-old female athymic nude mice. […] The data in Table 4 are a summary of two independent experiments.

10T1/2 = test: Cell proliferation (cell number); format: cell-based, mouse; settings: treated for four days
Protocol: The adherent cells were detached with trypsin/EDTA and the cell number determined using a hemocytometer. Data points indicate the mean ± S.D. of duplicates from two independent experiments. The cell lines were obtained from the American Type Culture Collection and maintained in RPMI 1640 (HL-60) or Dulbecco's Modified Eagle's Medium (10T1/2) supplemented with 10% heat inactivated fetal calf serum (Gibco Laboratories), 2 mM L-Glutamine, and antibiotics.

[8] = system: premalignant 10T1/2 cells; test: cells
Protocol: C. Quantitation of adipocytosis. Lipids stained with Oil-Red O were extracted with butanol, and the optical density at 510 nm determined.
Lower: Quantitation of adipocytosis. Cells were fixed with 37% formaldehyde and stained with Oil-Red O. The stained intracellular lipid was extracted with butanol, and the optical density was determined using a Titertek Multiskan MC, manufactured by Flow Laboratories, at a wavelength 510 nm.

[9] = system: Squamous Cancer of Head & Neck A431; test: Tumor cell growth / proliferation; format: cell-based; settings: Homo sapiens
From the text: (§1) • # 7-10 For effective responses, the tumors may require much higher drug concentrations if used alone.

Fibrosarcoma RS485 = test: Tumor cell growth / proliferation; format: cell-based; settings: read-out: % Inhibition by NaPA 0.8 mg/ml
From the text: as §1

Breast Cancer MCF-7 = test: Tumor cell growth / proliferation; format: cell-based; settings: Homo sapiens
From the text: as §1

lung adenocarcinoma H596 = test: Tumor cell growth / proliferation; format: cell-based; settings: Homo sapiens, NCI-H596; read-out: concentration causing about 50% inhibition of growth

O=C([O-])Cc1ccccc1.[Na+] [NaPA, sodium phenylacetate]
induction of the activity of intracellular glutathione [1]: 2-10 fold | Tumor Formation Incidence [2]: 0/8 | appearance of the malignant phenotype (cell morphology, contact inhibition, anchorage dependent growth) [3]: prevented the appearance of the malignant phenotype | Tumors Diameter (C3H 10T1/2 Cells): 0 mm ± S.D. | Tumors Incidence (C3H 10T1/2 Cells; 1 x 10^6 cells s.c.): 0/8 | plasma levels ([4]; children with urea cycle disorders, infusion 300-500 mg/kg/day): approximately 800 µg/ml | plasma levels ([4]; humans, intravenous infusion 250-500 mg/kg/day): 600 to 800 µg/mL | level of HLA-A mRNA (HLA-A mRNA): an increase in the level of HLA-A mRNA | expression of collagenase type IV (collagenase type IV): inhibited the expression of collagenase type IV | hemoglobin accumulation, increase over control cells ([5]; 0.8 and 1.6 mg/ml): 4-9 fold | Benzidine Positive Cells ([5]; NaPA 0.8 mg/ml): 6.0% | Benzidine Positive Cells ([5]; NaPA 1.6 mg/ml): 17.1% | time to induction of aP2 gene expression [6]: ≤ 24 h | time to maximal aP2 mRNA levels [6]: ≤ 72 h | minimal effective concentration [7]: 2000 to 4000 µg/mL | Incidence (Prostatic PC3 Cells; 2 x 10^5 cells/animal s.c.): 1/7 | Diameter (Prostatic PC3 Cells): 2 mm ± S.D. | Weight (Prostatic PC3 Cells): 50 mg | cell proliferation (10T1/2): dose dependent inhibition of cell proliferation | cytotoxic effect ([8]; 800 µg/ml): totally free of cytotoxic effect | Differentiation at 1 mM ([8]; 1 mM, sodium salts): 65% | adipocyte conversion, share of the cell population ([8]; 10T1/2 model): over 80% | DC50 ([8]; Mus musculus, Adipocyte, read-out: DC50, concentration of compound causing 50% differentiation): 700 µM | inhibition at 800 µg/mL ([9]; A-431, read-out: % Inhibition by NaPA 0.8 mg/ml, 0.8 mg/ml): < 30% | IC50 ([9]; A-431, read-out: concentration causing about 50% inhibition of growth): 1000 to 1500 mg/L | inhibition at 800 µg/mL (Fibrosarcoma RS485): ≤ 30% | inhibition at 800 µg/mL (Breast Cancer MCF-7; MCF7, read-out: % Inhibition by NaPA 0.8 mg/ml, MCF-7, 0.8 mg/ml): ≤ 30% | IC50 (Breast Cancer MCF-7; MCF7, breast tumor MCS-7, read-out: concentration causing about 50% inhibition of growth): 1000 to 1500 mg/L | IC50 (lung adenocarcinoma H596): 400 to 800 mg/L
